Entries after “also recorded” stand apart in the source; their conditions may differ.
What was measured:
SPRR1A = experiment: Immunoblot for SPRR1A protein in oligonucleotide-treated adult mouse DRG cultures; format: cell-based; conditions: preconditioned adult DRG neurons, 36 hr culture with oligonucleotide 10-50 μM
adult mouse DRG neurons = experiment: Antisense experiment: neurite outgrowth and branching of adult mouse DRG cultures; format: cell-based
Method: DRG cultures and neurite outgrowth analysis. Embryonic day 7 (E7) chick, embryonic day 13 chick, or adult mouse DRGs were dissected and dissociated with 0.25% trypsin for 15 min at 37° C. For adult mouse DRG preparations, preincubation with 1 mg/ml collagenase was included. For preconditioned adult mouse DRG cultures, sciatic nerve lesions were performed 4 d before death and L3-L5 DRG dissection. Dissociated cells were preplated on tissue culture-treated plastic dishes for 1 hr at 37° C. Non-adherent cells (predominantly neurons) were collected and plated on plastic chamber slides coated with poly-L-lysine (100 μg)/laminin (10 μg/ml). In some cases, the substrate was coated with 45 ng/mm^2 bovine CNS myelin or 34 ng/mm^2 purified GST-Nogo-66 protein as described previously (Jin and Strittmatter, 1997; GrandPre et al., 2000; Fournier et al., 2001). After 6-36 hr, cells were fixed and stained, and neurite outgrowth was quantified. Images of each culture were captured with Olympix Software and analyzed with Scion Image (Jin and Strittmatter, 1997; GrandPre et al., 2000; Fournier et al., 2001). The total neurite length for each neuron was determined for 50-100 neurons in each experiment. The total number of branch points was divided by the total neurite length to obtain a branching index.
Antisense experiment. Phosphorothioate sense and antisense oligonucleotides spanning the translation initiation site (italic type) of the mouse sprr1a sequence (sense, p-thio-[…] (SEQ ID NO:4); antisense, p-thio-[…] (SEQ ID NO:5)) were generated. Adult mouse DRG cultures were incubated with purified oligonucleotides at concentrations of 10-50 μM. Immunoblot and immunohistological analysis was performed after 36 hr of culture.

E8 chick DRGs = experiment: Neurite outgrowth of E8 chick DRGs triturated with SPRR1A-derived peptide; format: cell-based; conditions: trituration, 6 hours after plating on laminin
Excerpt: Herpes simplex virus preparation and protein trituration. The coding region of mouse SPRR1A was amplified by PCR with an in-frame C-terminal Myc epitope and ligated to the pHSVprPUC vector. Similarly, the S100C coding region with a Myc tag was ligated to pHSVprPUC vector. The resulting plasmids were transfected into 2-2 cells with Fugene and then superinfected with 5 dl 1.2 herpes simplex virus (HSV) helper virus 1 d later as described previously (Nakamura et al., 1998; Takahashi et al., 1998, 1999). Recombinant virus was amplified through three passages and stored at −80° C. Freshly dissociated DRG neurons were allowed to adhere to cultured dishes for 30 min and then incubated with HSV preparations encoding for SPRR1A, S100C, enhanced green fluorescent protein (EGFP), or Nogo receptor. […]
(§1) DRG cultures and neurite outgrowth analysis. […] After 6-36 hr, cells were fixed and stained, and neurite outgrowth was quantified. Images of each culture were captured with Olympix Software and analyzed with Scion Image (Jin and Strittmatter, 1997; GrandPre et al., 2000; Fournier et al., 2001). The total neurite length for each neuron was determined for 50-100 neurons in each experiment. […]
An SPRR1A-derived peptide acts as an agent to promote axon regeneration. […] This 24 amino acid peptide was triturated into E8 chick DRGs and neurite length was measured 6 hours after the cells were plated on laminin (FIG. 8). […]

F-actin = experiment: Actin cosedimentation and immunoprecipitation assays; format: binding; conditions: in the presence or absence of S100C protein
Method: Actin cosedimentation assay. The actin cosedimentation protocol has been described previously (Gonzalez et al., 1998; Sakaguchi et al., 2000). Purified monomeric actin (G-actin, 25 μM; Cytoskeleton, Denver, Colo.) was incubated with recombinant SPRR1A (200 nM), GST-S100C (2 μM), or GST (2 μM) in an actin polymerization buffer (5 mM Tris, pH 8.0, 1.0 mM CaCl2, 1.0 mM DTT, 0.2 mM ATP, 100 mM KCl, 2.0 mM MgCl2) at room temperature for 60 min. Polymerized actin was sedimented by centrifugation at […] for 1 hr. Equal volumes of the particulate and supernatant fractions were analyzed by SDS-PAGE and immunoblotting.

chick E7 DRG neurons = experiment: Neurite outgrowth of embryonic chick DRG neurons after HSV infection or protein trituration; format: cell-based
Excerpt: Herpes simplex virus preparation and protein trituration. The coding region of mouse SPRR1A was amplified by PCR with an in-frame C-terminal Myc epitope and ligated to the pHSVprPUC vector. Similarly, the S100C coding region with a Myc tag was ligated to pHSVprPUC vector. The resulting plasmids were transfected into 2-2 cells with Fugene and then superinfected with 5 dl 1.2 herpes simplex virus (HSV) helper virus 1 d later as described previously (Nakamura et al., 1998; Takahashi et al., 1998, 1999). Recombinant virus was amplified through three passages and stored at −80° C. Freshly dissociated DRG neurons were allowed to adhere to cultured dishes for 30 min and then incubated with HSV preparations encoding for SPRR1A, S100C, enhanced green fluorescent protein (EGFP), or Nogo receptor. Recombinant SPRR1A and S100C protein were triturated into dissociated DRGs by repetitive pipetting in the presence of 1 mg/ml of protein as described previously (Jin and Strittmatter, 1997).
as §1

Which “SPRR1A protein level (immunoblot, immunohistochemistry)” value (SPRR1A) does the source give for “p-thio-GTGGGAACTCATGGTTAGAT (all phosphorothioate, sugars by position and methylation of C not given here) [antisense oligonucleotide]” here?
The value was “significantly and selectively decreased; also recorded: decreases to nearly basal levels”.

And the “neurite length, preconditioned neurons” value (adult mouse DRG neurons; adult preconditioned DRG neurons, 36 hr, vs sense-treated)?
The value was “significant decrease in neurite length”.

What about the “axonal branching index, preconditioned neurons” value (adult mouse DRG neurons; adult preconditioned DRG neurons, vs sense-treated) of the same molecule?
Its value is “marked increase”.

What about the “effect on naive neurons (do not express SPRR1A)” value (adult mouse DRG neurons; naive adult mouse DRG neurons) of the same molecule?
The value was “lack of effect”.

With “acetyl-HPKAPEPCNPKVPEPCQPKVPEPC-amide (Ac-HPKAPEPCNPKVPEPCQPKVPEPC-NH2; cysteine pairing not given here; listed as Mus musculus) [SEQ ID NO:3, 24 amino acid peptide consisting of three XPKXPEPC octapeptide repeats of SPRR1A]” as the molecule, how does the “enhancement of average neurite outgrowth” value (E8 chick DRGs; 5-25 μM peptide) read?
The value was 1.7 fold.

What about the “enhancement of neurite outgrowth” value (E8 chick DRGs; 100-500 μM peptide) of the same molecule?
The value was 2.5 fold.

B1: SPRR1A: Recombinant mouse small proline-rich repeat protein SPRR1A purified from transformed Escherichia coli (protein, listed as Mus musculus)
chain: MSSHQQKQPCTVPPQLHQQQVKQPCQPPPQEPCAPKTKDPCHPVPEPCNPKGPEPCHPKAPEPCHPKAPEPCNPKVPEPCQPKVPEPCQPKVPEPCNPKVPEPCQPKAPEPCHPKAPEPCHPVVPEPCPSTVTPSPYQQKTKQK
For B1, which “direct physical association with F-actin” value (F-actin) is on record?
Its value is “no direct physical association”.

What about the “neurite outgrowth, protein added to the culture medium without trituration” value (chick E7 DRG neurons; no trituration) of the same molecule?
Its value is “does not alter outgrowth”.

And the “neurite outgrowth in neurons triturated with purified protein” value (chick E7 DRG neurons; recombinant protein triturated into DRG neurons, 1 mg/ml)?
The value was “increase in neurite outgrowth”.

Source: patent publication US7335636B2, “SPRR1A and axonal regeneration” (Yale University, priority 2001, dated 2008)
